This is an account of results in publication PMC3140712 (2011).

SMILES strings stand for the structures. Where a name gives a salt, the structure may show the parent alone.

The assay has as its target P2Y1 receptor (Homo sapiens, UniProt P47900). Put plainly: intracellular calcium mobilization. Format: cell-based. In general terms: A change in cytosolic calcium serves as a functional read-out for many receptors and channels.

P2Y1 receptor, sequence (P47900 whole entry): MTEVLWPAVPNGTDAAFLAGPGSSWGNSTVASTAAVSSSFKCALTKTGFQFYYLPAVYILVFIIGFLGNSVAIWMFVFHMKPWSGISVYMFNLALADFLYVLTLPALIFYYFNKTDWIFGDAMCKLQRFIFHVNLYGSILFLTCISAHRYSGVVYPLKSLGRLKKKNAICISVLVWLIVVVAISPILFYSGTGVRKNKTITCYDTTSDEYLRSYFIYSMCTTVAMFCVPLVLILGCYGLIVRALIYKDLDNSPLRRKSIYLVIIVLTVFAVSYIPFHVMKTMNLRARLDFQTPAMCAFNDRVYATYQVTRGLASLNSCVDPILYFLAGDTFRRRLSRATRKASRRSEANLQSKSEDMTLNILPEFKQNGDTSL

Broadly, the EC50 is the concentration at which the effect is half-maximal. Turning to `CSc1nc(N)c2ncn([C@H]3[C@H](O)[C@H](O)[C@]4(COP(=O)(O)OP(=O)(O)O)C[C@H]34)c2n1` [MRS2365, [[(1R,2R,3S,4R,5S)-4-[6-amino-2-(methylthio)-9H-purin-9-yl]-2,3-dihydroxybicyclo[3.1.0]hex-1-yl]methyl] diphosphoric acid mono ester trisodium salt], the EC50 stood at 5.28 ± 1.96 nM.
